Experiments:
[1] = tested on: Ethanol ulcer; experiment: Ethanol ulcer inhibiting activity; format: in vivo, Male wister rats; conditions: po; rat; P.O., 30 minutes before 99.5% ethanol
Procedure: Ethanol ulcer inhibiting activity
Male wister rats having a weight of from 170 to 270 g were put into individual cages and starved for 24 hours. During this starvation period, the rats were allowed to drink water freely. A test compound or PGE2 as a comparative compound was orally administered in an amount of 3, 10 or 30 μg/kg, and 30 minutes later, 1 ml of 99.5% ethanol was orally administered to each rat. One hour after the ethanol administration, each rat was filled by cervical vertebral luxation, and the stomach was taken out. A 1% formaline solution was injected into the stomach in an amount of about 8 ml, and the stomach was fixed in the formaline solution for 30 minutes. After the fixing, the stomach was severed along the greater curvature, and the mucous membrane surface of the stomach was gently washed with flowing water. Then, the total length of damages appearing on the gastric glandular portion was obtained and used as the ulcer index.
The ethanol ulcer inhibiting activity of a test compound was represented by ED50 (i.e. the dose of the test compound at which the ulcer was inhibited by 50% relative to the ulcer index of the non-treated group). To the non-treated group, the solvent was administered.

[2] = tested on: Hydrochloric acid ulcer; experiment: Hydrochloric acid ulcer inhibiting activity; format: in vivo, wister rats; conditions: rat; oral administration of 30 μg/kg; 0.6N hydrochloric acid; read-out: Hydrochloric acid ulcer inhibiting activity, Inhibiting rate
Procedure: Hydrochloric acid ulcer inhibiting activity
Male wister […] having a weight of from 190 to 240 g were used. The rats were starved in the same manner as in Test Example 6, and the test compounds and PGE2 were, respectively, orally administered in an amount of 30 μg/kg, and 30 minutes later, 1 ml of 0.6N hydrochloric acid was orally administered. Thirty minutes after the hydrochloric acid administration, each rat was killed by cervical vertebral luxation. Then, the stomach was taken out and fixed, and the ulcer index was obtained, in the same manner as in Test Example 6. The hydrochloric acid ulcer inhibiting activity of a test compound was represented by the inhibiting percentage (i.e. the percentage of the ulcer index of the treated group to the ulcer index of the non-treated group). To the non-treated group, the solvent was administered.

[3] = tested on: Indomethacine ulcer; experiment: Indomethacine ulcer inhibiting activity; format: in vivo, Male wister rats; conditions: rat; oral administration 30 μg/kg twice
Source text: Indomethacine ulcer inhibiting activity
Male wister rats having a weight of from 210 to 270 g were used. The rats were starved in the same manner as in Test Example 6. […] Three hours after the indomethacine administration, the test compound or PGE2 was again orally administered in the same amount. Six hours after the first administration of indomethacine, each rat was killed by cervical bertebral luxation. The stomach was taken out and fixed, and the ulcer index was obtained, in the same manner as in Test Example 6.
The indomethacine ulcer inhibiting activity of a test compound was represented by the inhibiting percentage (i.e. the inhibiting percentage of the ulcer index of the treated group to the ulcer index of the non-treated group). To the non-treated group, the solvent was administered.

**Q.** `CCCCC[C@H](O)/C=C/[C@H]1[C@H](O)CC(=O)[C@@H]1C/C=C\CCCC(=O)O` [PGE2, reference compound] was tested. Which ED50 [1] did it give?
**A.** The ED50 was 9.03 µg/kg.

**Q.** And the inhibition in vivo at 0.03 mg/kg [2]?
**A.** Its inhibition in vivo at 0.03 mg/kg is 61.6%.

**Q.** And the “Indomethacine ulcer inhibiting activity, Inhibiting rate” value [3]?
**A.** Its value is 98.3%.

Reference: patent US4837342A, “Prostacyclin analogue, and blood circulation improving agent and anti-ulcer composition containing it as active ingredient” (Sagami Chemical Research Center, priority 1986, dated 1989)
